Earlier results, collected in patent US11766470B2, “Manufacture, formulation and dosing of apraglutide” (VectivBio AG, priority 2020, dated 2023).
Like-named read-outs stand apart in the source and are kept apart here.

Key:
[1] = dosed once daily; cited from earlier work
[2] = cited from earlier work
[3] = cited from earlier work; remark: listed apart in the source

Question: Which “Change from baseline increase in urinary input” value [1] does the source give for `CC[C@H](C)[C@H](NC(=O)[C@H](Cc1ccccc1)NC(=O)[C@H](CC(=O)O)NC(=O)[C@H](CCCNC(=N)N)NC(=O)[C@H](C)NC(=O)[C@H](C)NC(=O)[C@H](CC(C)C)NC(=O)[C@H](CC(N)=O)NC(=O)[C@H](CC(=O)O)NC(=O)[C@H](CC(C)C)NC(=O)[C@@H](NC(=O)[C@@H](NC(=O)[C@H](CC(N)=O)NC(=O)[C@H](CCSC)NC(=O)[C@H](CCC(=O)O)NC(=O)[C@H](CC(=O)O)NC(=O)[C@H](CO)NC(=O)[C@H](Cc1ccccc1)NC(=O)[C@H](CO)NC(=O)CNC(=O)[C@H](CC(=O)O)NC(=O)CNC(=O)[C@@H](N)Cc1c[nH]cn1)[C@@H](C)O)[C@@H](C)CC)C(=O)N[C@@H](CC(N)=O)C(=O)N[C@@H](Cc1c[nH]c2ccccc12)C(=O)N[C@@H](CC(C)C)C(=O)N[C@H](C(=O)N[C@@H](CCC(N)=O)C(=O)N[C@H](C(=O)N[C@@H](CCCCN)C(=O)N[C@H](C(=O)N[C@H](C(=O)N[C@@H](CC(=O)O)C(=O)O)[C@@H](C)O)[C@@H](C)CC)[C@@H](C)O)[C@@H](C)CC` [teduglutide] here?
Answer: 139.3%

Question: And the “Change in baseline in energy absorption” value [1]?
Answer: 792 kJ/day

Question: What about the “Change in baseline in wet weight absorption” value [1] of the same compound?
Answer: 743 g/day

Question: Which “Half-life t½” value [2] does the source give for “Glucagon-like peptide 2 [GLP-2, reference compound]” here?
Answer: 10 min

Question: Which “Change from baseline increase in urinary output” value ([3]; 0.1 mg dose once daily) does the source give for glepaglutide here?
Answer: 111%

Question: And the “Change in baseline in energy absorption” value ([3]; 0.1 mg dose once daily)?
Answer: -377 kJ/day

Question: What about the “Change in baseline in wet weight absorption” value ([3]; 0.1 mg dose once daily) of the same compound?
Answer: -211 g/day

Question: What about the “Change from baseline increase in urinary output” value ([3]; 1.0 mg dose once daily) of the same compound?
Answer: 140%

Question: And the “Change in baseline in energy absorption” value ([3]; 1.0 mg dose once daily)?
Answer: 435 kJ/day

Question: What about the “Change in baseline in wet weight absorption” value ([3]; 1.0 mg dose once daily) of the same compound?
Answer: 650 g/day

Question: What about the “Change from baseline increase in urinary output” value ([3]; 10 mg dose once daily) of the same compound?
Answer: 132%

Question: What about the “Change in baseline in energy absorption” value ([3]; 10 mg dose once daily) of the same compound?
Answer: 588 kJ/day

Question: What about the “Change in baseline in wet weight absorption” value ([3]; 10 mg dose once daily) of the same compound?
Answer: 786 g/day
